Measured values as given in patent US7928099B2, “Pyrimido [4,5-D] azepine derivatives as 5-HT2c agonists” (Pfizer Inc, priority 2007, dated 2011).
Counter-ions that a name gives are not always drawn.

Experiments:
[1] = target: T1, human recombinant 5-HT2c receptor (Homo sapiens, UniProt P28335); experiment: FLIPR fluorescent Ca2+ mobilisation agonist assay in CHO K1 cells (Method 1); format: cell-based; details: for Emax: CHO-K1, efficacy; for Emax / Emax %: percentage of mean maximal response to 10 μM 5-HT; for EC50: agonist affinity, FLIPR; for Emax %: efficacy
T1 construct: expressed in transfected cells; host or cells: CHO K1 (Chinese hamster ovary), stably transfected
T1 sequence (P28335 33-458): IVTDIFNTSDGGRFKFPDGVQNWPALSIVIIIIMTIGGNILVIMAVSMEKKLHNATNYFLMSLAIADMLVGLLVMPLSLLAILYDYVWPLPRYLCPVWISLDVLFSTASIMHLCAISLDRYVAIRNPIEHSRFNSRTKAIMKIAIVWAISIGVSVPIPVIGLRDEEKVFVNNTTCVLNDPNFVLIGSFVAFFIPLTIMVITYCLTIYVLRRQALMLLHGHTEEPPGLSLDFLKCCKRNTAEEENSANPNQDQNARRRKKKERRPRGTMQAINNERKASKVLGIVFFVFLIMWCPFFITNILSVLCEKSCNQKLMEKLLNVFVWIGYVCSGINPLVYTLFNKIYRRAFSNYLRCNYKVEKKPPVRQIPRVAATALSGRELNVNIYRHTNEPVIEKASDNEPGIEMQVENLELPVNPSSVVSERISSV
Procedure: (§1) The compounds of the invention were evaluated for biological activity by measuring the agonist affinity (EC50) and efficacy (Emax) at the human recombinant 5-HT2c receptor expressed in CHO K1 cells, using a fluorescent based Ca^2+ mobilisation assay format compatible with FLIPR technology (Method 1). Additionally, the binding activity of a compound was determined by measuring its affinity for the human recombinant 5-HT2c receptor membranes from Swiss 3T3 cells (Method 2).
The agonist affinity of the compounds were tested by measuring their ability to induce a fluorescent based Ca^2+ mobilization signal in a FLIPR assay using CHO K1 cells expressing recombinant human 5-HT2C receptor. Both agonist affinity (EC50) and efficacy (Emax) were determined.
Chinese hamster ovary cells (CHO K1) stably transfected with the 5-HT2c receptor were cultured under standard cell culture techniques. Specifically, cells were grown at 37° C. and 5% CO2 in Dulbecco's Modified Eagle's Medium (DMEM) culture media supplemented with 10% dialysed foetal calf serum (FCS), 1% non-essential amino acids, 1 mM sodium pyruvate, 800 μg/mL geneticin and 50 μg/ml zeocin. Cells were harvested for passaging and storage using trypsin-EDTA, centrifugation and resuspension in culture medium. Cells were grown to 60-80% confluency, harvested and adjusted to 15-20×10^6 cells/ml/vial in medium/10% DMSO and stored long-term at −80° C.
Cells were seeded into black-walled clear-bottomed 384 well plates 24 h before use. Frozen cells were defrosted in a 37° C. water bath and immediately transferred into 1 mL/vial 37° C. culture medium, diluted to 10 ml and DMSO removed by centrifugation. The cells were resuspended in 15 ml/vial of cell culture medium, counted and adjusted to give 500,000 cells/mL (10,000 cells/well). […] of cell suspension was added to the 384 well plates which were then incubated overnight at 37° C.
The maximum agonist response was determined with 5-HT at a final assay concentration of 10 μM in the diluent above. The minimum response was determined with Dulbeccos PBS (+CaCl2, +MgCl2) with 0.9% DMSO and 0.05% pluronic F-127. Test compounds, maximum and minimum controls were added to a 384 well polypropylene plate.
The FLIPR calcium assay reagent was diluted with assay buffer (Hank's Balanced Salt Solution (HBSS))/20 mM HEPES and 2.5 mM probenecid (diluted with 1M Sodium hydroxide and DPBS (+CaCl2, +MgCl2)).
20 μl/well FLIPR calcium assay reagent was added to the cell plates, which were incubated for 1 h at 37° C. Cell plates and compound plates were then transferred onto the FLIPR. The assay was run using the appropriate FLIPR program, which initiates the reaction by transferring 15 μL compound into the corresponding, well of the cell plate.
The statistical parameter exported from each well was the max peak height of the response.

[2] = target: T1, human recombinant 5-HT2c receptor; experiment: 3H-meselurgine radioligand binding SPA, membranes from Swiss 3T3 cells (Method 2); details: 3H-meselurgine displacement, Cheng-Prusoff; Swiss 3T3 membranes; read-out: Binding Affinity Ki
Procedure: as §1
The compounds were tested for biological activity by their ability to inhibit binding of the radioligand ^3H-meselurgine at the human recombinant 5-HT2C receptor expressed in the Swiss 3T3 cells using a scintillation proximity assay (SPA) technology.
Swiss 3T3 stably transfected with the 5-HT2C receptor were cultured under standard cell culture techniques. Specifically, cells were grown in 50 mL growth medium (Dulbecco's Modified Eagle's Medium (DMEM) culture media supplemented with 10% dialysed foetal calf serum (FCS), 2 mM penicillin/streptomycin and 20 μg/mL geneticin) in 225 cm^2 flasks at 37° C. and 5% CO2. Cells were grown to 60-80% confluency, harvested using trypsin-EDTA and pelleted by centrifugation for long-term storage at −80° C.
Cell pellets were thawed on ice and resuspended in 3 mL of membrane preparation buffer (see Media and Buffers for composition) per 1 mL of packed cell. The suspension was homogenised on ice for several 5 s intervals using a hand-held homogeniser. The homogenate was then centrifuged at 1,000 rpm for 5 min at 4° C.
The supernatants were then collected and retained. Initial cell & nuclei pellets (P1) were subsequently rehomogenised and centrifuged using the conditions cited above, and the supernatants collected and pooled with those retained from the first spin.
The pooled supernatants were centrifuged at 19,500 rpm for 45 min at 4° C., and the supernatants discarded. The pellets (P2) were then resuspended in 3 mL of membrane preparation buffer per 1 mL of the original packed cell volume. Protein concentrations were subsequently measured and the membrane suspension was finally frozen in aliquots of set volume and stored at −80° C. prior to use in assays.
For each batch of membrane used, optimal concentrations of Polylysine YSi SPA beads and membrane were determined. The assay free radioligand concentration was expressed as a percentage of the total free radioligand concentration to give an estimate of the radioligand depletion.
The affinity of ^3H-meselurgine for the human recombinant 5-HT2c receptor was determined for each membrane batch at the selected protein and bead concentrations. […] The mean KD for ^3H-meselurgine at a batch of membranes was determined from data from a minimum of three separate assays.
The required amount of membrane, was thawed on ice and added to a pre-determined volume of bead suspension in 50 mM HEPES buffer, pH 7.4. The beads were then pre-coupled by incubating the predetermined protein quantity per mg of bead on a roller 4° C. for 1 h. Subsequently, the bead/membrane complex was spun down at 1000 rpm for 5 min. The resulting pellet was resuspended in assay buffer at the specific concentration required for the final assay.
An aliquot of [^3H]-meselurgine stock was diluted in binding assay buffer to give a pre-determined final assay concentration less than the equilibrium dissociation constant (KD) value.
All test compounds were prepared at a concentration of 4 mM in 100% dimethyl sulphoxide (DMSO) from dry samples.
The same volume of assay buffer was added to specific wells of the plate to enable subsequent measurement of total radioligand binding. Furthermore, 5 μL of Mianserin at 25 μM (2.5 μM final assay concentration was subsequently added to pre-determined wells to determine non-specific binding (NSB).

Molecule | Emax [1] [%] | EC50 [1] [nM] | Ki [2] [nM] | Emax % [1] [%]
OC(c1ccccc1)c1ncc2c(n1)CCNCC2 (single isomer, unassigned; stereoisomer 1) [Example 70, Phenyl-(6,7,8,9-tetrahydro-5H-pyrimido[4,5-d]azepin-2-yl)-methanol dihydrochloride (Stereoisomer 1)] | 76 | 643 | 978 | 
CC(C)(c1ccccc1)c1nc2c(c(N3CCOCC3)n1)CCNCC2 [Example 11, 2-(1-Methyl-1-phenylethyl)-4-morpholin-4-yl-6,7,8,9-tetrahydro-5H-pyrimido[4,5-d]azepine] | 75.2 | 884 | 73.5 | 
OC1(CNc2nc(Cc3ccccc3)nc3c2CCNCC3)CCC1 [Example 41, 1-{[(2-benzyl-6,7,8,9-tetrahydro-5H-pyrimido[4,5-d]azepin-4-yl)amino]methyl}cyclobutanol hydrochloride] | 74.7 | 57 | 86.9 | 
c1ccc(Cc2nc3c(c(-n4ccnc4)n2)CCNCC3)cc1 [Example 55, 2-Benzyl-4-imidazol-1-yl-6,7,8,9-tetrahydro-5H-pyrimido[4,5-d]azepine] | 72.6 | 263 | 380 | 
Cc1nc(Cc2ccccc2)nc2c1CCNCC2 [Example 68, 2-Benzyl-4-methyl-6,7,8,9-tetrahydro-5H-pyrimido[4,5-d]azepine] | 71.4 | 179 | 421 | 
Cc1ccccc1Cc1ncc2c(n1)CCNCC2 [Example 66, 2-(2-Methylbenzyl)-6,7,8,9-tetrahydro-5H-pyrimido[4,5-d]azepine] | 70.5 | 332 | 304 | 
CC1CNCCc2cnc(Cc3ccccc3)nc21 (single isomer, unassigned) [47 (Peak 2), 2-Benzyl-9-methyl-6,7,8,9-tetrahydro-5H-pyrimido[4,5-d]azepine] | 76.6 | 233 | 218 | 
2-[Difluoro(phenyl)methyl]-N-methyl-6,7,8,9-tetrahydro-5H-pyrimido[4,5-d]azepin-4-amine [Example 8] |  | 128 | 44.5 | 54.30
FC(F)(F)c1cccc(Cc2ncc3c(n2)CCNCC3)c1 [Example 63, 2-[3-(Trifluoromethyl)benzyl]-6,7,8,9-tetrahydro-5H-pyrimido[4,5-d]azepine] | 44.1 | 298 | 308 | 
c1ccc(Cc2nc3c(c(NCC4CCCO4)n2)CCNCC3)cc1 (stereo not drawn) [Example 19, 2-benzyl-N-(tetrahydrofuran-2-ylmethyl)-6,7,8,9-tetrahydro-5H-pyrimidol[4,5-d]azepin-4-amine hydrochloride] | 36.3 | 344 | 52.4 | 
c1ccc(Cc2nc3c(c(C4CC4)n2)CCNCC3)cc1 [Example 53, 2-Benzyl-4-cyclopropyl-6,7,8,9-tetrahydro-5H-pyrimido[4,5-d]azepine] | 49.6 | 293 | 105 | 
CC1CNCCc2cnc(Cc3ccccc3)nc21 (single isomer, unassigned) [47 (Peak 1), 2-Benzyl-9-methyl-6,7,8,9-tetrahydro-5H-pyrimido[4,5-d]azepine] |  | 453 | 133 | 96.40
c1ccc(Cc2nc3c(c(NC4CCOC4)n2)CCNCC3)cc1 (stereo not drawn) [Example 39, 2-benzyl-N-(tetrahydrofuran-3-yl)-6,7,8,9-tetrahydro-5H-pyrimido[4,5-d]azepin-4-amine hydrochloride] | 30.6 | 516 | 696 | 
COc1nc(C(F)(F)c2ccccc2)nc2c1CCNCC2 [Example 72, 2-(Difluoro-phenyl-methyl)-4-methoxy-6,7,8,9-tetrahydro-5H-pyrimido[4,5-d]azepine] | 41.1 | 80 | 77.7 | 
FC1CCN(c2nc(Cc3ccccc3)nc3c2CCNCC3)C1 (stereo not drawn) [Example 43, 2-benzyl-4-(3-fluoropyrrolidin-1-yl)-6,7,8,9-tetrahydro-5H-pyrimido[4,5-d]azepine hydrochloride] | 52.6 | 190 | 61 | 
OC1CCN(c2nc(Cc3ccccc3)nc3c2CCNCC3)CC1 [Example 38, 1-(2-benzyl-6,7,8,9-tetrahydro-5H-pyrimido[4,5-d]azepin-4-yl)piperidin-4-ol hydrochloride] | 66 | 336 | 514 | 
CN(CC1CC1)c1nc(N2CCSCC2)nc2c1CCNCC2 [Example 90, N-(cyclopropylmethyl)-N-methyl-2-thiomorpholin-4-yl-6,7,8,9-tetrahydro-5H-pyrimido[4,5-d]azepin-4-amine] | 87.3 | 75.9 | 24.7 | 
COc1nc(N(C)Cc2ccccc2)nc2c1CCNCC2 [Example 16, N-benzyl-4-methoxy-N-methyl-6,7,8,9-tetrahydro-5H-pyrimido[4,5,d]azepin-2-amine] | 41.4 | 526 | 54.7 | 
CCc1nc(Cc2ccccc2)nc2c1CCNCC2 [Example 52, 2-Benzyl-4-ethyl-6,7,8,9-tetrahydro-5H-pyrimido[4,5-d]azepine] | 71.6 | 314 | 142 | 
Fc1ccc(Cc2ncc3c(n2)CCNCC3)cc1 [Example 62, 2-(4-Fluorobenzyl)-6,7,8,9-tetrahydro-5H-pyrimido[4,5-d]azepine] | 59.6 | 309 | 471 | 
